Assay [1] addresses rat brain benzodiazepine receptors (3H-diazepam receptor). As to the kind of experiment: benzodiazepine-receptor binding test in vitro (inhibition of specific 3H-diazepam binding to rat brain membranes). The note with it: 3H-diazepam displacement, read-out: inhibition constant Ki (Ki = IC50/(1+C/KD)) for specific 3H-diazepam binding. The text has this: The pharmacological properties of the compounds of the present invention were first investigated by submitting some representative members of this class to the benzodiazepine-receptor binding-test in vitro.

The subject of assay [2] is rats. Kind of assay: conflict test in rats (punished responding, Vogel method as modified by Lippa). The note with it: Rattus norvegicus, ip, 1 h, i.p., tested 60 minutes after administration, read-out: minimal effective dose (MED) significantly increasing the number of shocks versus controls. Type of assay: in vivo. As to the method: The ability of the compounds of the present invention to increase punished responding in animals in a conflict situation, a procedure with high validity for predicting the anxiolytic effect of drugs, was assessed by testing these compounds in rats according to the method described by J. R. Vogel, B. Beer, E. D. Clody in Psychopharmacologia 21, 1-7 (1971) as modified by A. S. Lippa et al., in "Anxiolytics, Industrial Pharmacology",Vol. 3, Futura Publishing, 1979, pages 41-81. Briefly, rats are deprived for water for 48 hours and deprived of food for 20 hours prior to testing. Sixty minutes after administration of the test compound each rat is placed in an especially equipped cage. A glucose solution is available from a tap located in the rear of the cage. A constant pulsating shocking current is connected between the grid floor and the tap. Each rat is allowed 20 seconds of non-shocked drinking, then cycles of 5 seconds shock-off and 5 seconds shock-on began. During the shock-on period each lick on the tap is accompanied by shock. The number of shocks received by each animal is recorded and minimal effective doses are determined.

Drawing on US4783461A, “3,6-disubstituted triazolo [3,4-A]phthalazine derivatives” (Gruppo Lepetit S.p.A., priority 1983, dated 1988), this text covers Ki and minimal effective dose for two molecules.

Usually minimal effective dose stands for the lowest level tested that produced the effect sought.

As to `COc1ccc(-c2nnc3c4ccccc4c(CN4CCCC4)nn23)cc1` [Example 2, 3-(4-Methoxyphenyl)-6-[(1-pyrrolidinyl)methyl]-1,2,4-triazolo[3,4-a]phthalazine], the Ki in assay [1] turned out to be 150 nM.
Take `COCCOCc1nn2c(-c3ccc(OC)cc3)nnc2c2ccccc12` [Example 1, 6-[(2-Methoxyethoxy)methyl]-3-(4-methoxyphenyl)-1,2,4-triazolo[3,4-a]phthalazine]: the Ki in assay [1] came out at 20 nM. For the same molecule, the minimal effective dose in assay [2] is 5 mg/kg.
